# Legend:
# [1] = Cytotoxicity against human FR2 cells assessed as cell growth inhibition after 48 hrs by MTT assay; type: cell-based
# [2] = target: Homeodomain-interacting protein kinase 2 (Homo sapiens) (UniProt Q9H2X6); assay: Inhibition of human HIPK2 (165 to 564 residues) assessed as remaining enzyme activity at 50 uM after 30 mins by 33P-ATP filter-binding assay
# [3] = target: Serine/threonine-protein kinase PLK1 (Homo sapiens) (UniProt P53350); assay: Inhibition of human PLK1 (1 to 603 residues) assessed as remaining enzyme activity at 50 uM after 30 mins by 33P-ATP filter-binding assay
# Chain of Serine/threonine-protein kinase PLK1 (Homo sapiens) (P53350 whole entry, the tested form may be a part): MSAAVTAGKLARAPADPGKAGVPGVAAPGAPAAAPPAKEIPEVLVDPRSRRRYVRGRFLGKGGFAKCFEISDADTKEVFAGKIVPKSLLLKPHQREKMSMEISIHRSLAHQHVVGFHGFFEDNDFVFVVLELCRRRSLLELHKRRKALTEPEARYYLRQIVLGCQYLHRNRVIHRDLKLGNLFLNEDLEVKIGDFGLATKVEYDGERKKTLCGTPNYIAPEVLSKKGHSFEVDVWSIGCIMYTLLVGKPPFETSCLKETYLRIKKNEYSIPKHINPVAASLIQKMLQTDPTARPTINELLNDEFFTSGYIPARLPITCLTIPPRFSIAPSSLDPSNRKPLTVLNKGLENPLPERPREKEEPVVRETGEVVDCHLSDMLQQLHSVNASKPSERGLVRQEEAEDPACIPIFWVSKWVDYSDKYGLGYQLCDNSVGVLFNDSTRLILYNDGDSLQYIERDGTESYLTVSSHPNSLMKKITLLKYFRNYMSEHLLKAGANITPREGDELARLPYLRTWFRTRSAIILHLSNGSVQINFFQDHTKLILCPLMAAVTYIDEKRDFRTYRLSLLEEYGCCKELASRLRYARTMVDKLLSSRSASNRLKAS
# [4] = target: Dual specificity tyrosine-phosphorylation-regulated kinase 1A (Homo sapiens) (UniProt Q13627); assay: Inhibition of human DYRK1A (1 to 502 residues) assessed as remaining enzyme activity at 50 uM after 30 mins by 33P-ATP filter-binding assay
# [5] = target: Serine/threonine-protein kinase STK11 (Homo sapiens) (UniProt Q15831); assay: Inhibition of human LKB1 (1 to 433 residues) assessed as remaining enzyme activity at 50 uM after 30 mins by 33P-ATP filter-binding assay
# Chain of Serine/threonine-protein kinase STK11 (Homo sapiens) (Q15831 whole entry, the tested form may be a part): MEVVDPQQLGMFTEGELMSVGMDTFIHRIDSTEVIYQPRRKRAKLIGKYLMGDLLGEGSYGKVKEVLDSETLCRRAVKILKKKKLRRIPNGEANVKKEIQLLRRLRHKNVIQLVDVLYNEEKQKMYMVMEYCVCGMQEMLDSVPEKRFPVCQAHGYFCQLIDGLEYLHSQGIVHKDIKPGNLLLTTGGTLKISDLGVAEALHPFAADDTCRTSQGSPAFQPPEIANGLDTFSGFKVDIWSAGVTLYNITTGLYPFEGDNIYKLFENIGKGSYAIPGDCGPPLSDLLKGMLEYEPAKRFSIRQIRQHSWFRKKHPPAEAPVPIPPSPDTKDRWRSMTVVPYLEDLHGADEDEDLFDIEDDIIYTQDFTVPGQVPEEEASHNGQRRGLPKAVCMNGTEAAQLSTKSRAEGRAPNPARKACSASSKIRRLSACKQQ
# [6] = Cell cycle arrest in human HL60 cells assessed as accumulation at G2 phase at 5 uM (reference value: 5 %); type: functional, cell-based; conditions: HL-60
# [7] = target: Interleukin-1 receptor-associated kinase 1 (Homo sapiens) (UniProt P51617); assay: Inhibition of human IRAK1 (1 to 712 residues) assessed as remaining enzyme activity at 50 uM after 30 mins by 33P-ATP filter-binding assay
# Chain of Interleukin-1 receptor-associated kinase 1 (Homo sapiens) (P51617 whole entry, looked up, the tested form may be a part): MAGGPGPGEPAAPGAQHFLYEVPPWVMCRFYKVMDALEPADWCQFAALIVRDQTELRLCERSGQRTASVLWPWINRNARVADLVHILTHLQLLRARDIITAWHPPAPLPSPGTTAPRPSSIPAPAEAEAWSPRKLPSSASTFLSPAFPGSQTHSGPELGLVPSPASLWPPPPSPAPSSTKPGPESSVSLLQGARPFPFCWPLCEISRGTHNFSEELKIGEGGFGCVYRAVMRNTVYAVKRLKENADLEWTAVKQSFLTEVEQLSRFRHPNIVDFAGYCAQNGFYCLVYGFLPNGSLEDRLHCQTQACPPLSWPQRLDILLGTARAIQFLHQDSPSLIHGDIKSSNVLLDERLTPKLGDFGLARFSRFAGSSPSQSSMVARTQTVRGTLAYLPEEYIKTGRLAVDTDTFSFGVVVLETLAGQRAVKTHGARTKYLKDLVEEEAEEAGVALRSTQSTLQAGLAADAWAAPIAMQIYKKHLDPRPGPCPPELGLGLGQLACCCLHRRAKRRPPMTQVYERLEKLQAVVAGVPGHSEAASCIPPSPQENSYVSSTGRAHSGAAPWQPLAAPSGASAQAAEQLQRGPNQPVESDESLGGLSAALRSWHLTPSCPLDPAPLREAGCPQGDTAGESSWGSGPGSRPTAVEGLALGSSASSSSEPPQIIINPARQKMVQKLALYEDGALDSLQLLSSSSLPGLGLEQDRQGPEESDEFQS
# [8] = target: Ephrin type-B receptor 4 (Homo sapiens) (UniProt P54760); assay: Inhibition of human EPHB4 (561 to 997 residues) assessed as remaining enzyme activity at 50 uM after 30 mins by 33P-ATP filter-binding assay
# Chain of Ephrin type-B receptor 4 (Homo sapiens) (P54760 whole entry, the tested form may be a part): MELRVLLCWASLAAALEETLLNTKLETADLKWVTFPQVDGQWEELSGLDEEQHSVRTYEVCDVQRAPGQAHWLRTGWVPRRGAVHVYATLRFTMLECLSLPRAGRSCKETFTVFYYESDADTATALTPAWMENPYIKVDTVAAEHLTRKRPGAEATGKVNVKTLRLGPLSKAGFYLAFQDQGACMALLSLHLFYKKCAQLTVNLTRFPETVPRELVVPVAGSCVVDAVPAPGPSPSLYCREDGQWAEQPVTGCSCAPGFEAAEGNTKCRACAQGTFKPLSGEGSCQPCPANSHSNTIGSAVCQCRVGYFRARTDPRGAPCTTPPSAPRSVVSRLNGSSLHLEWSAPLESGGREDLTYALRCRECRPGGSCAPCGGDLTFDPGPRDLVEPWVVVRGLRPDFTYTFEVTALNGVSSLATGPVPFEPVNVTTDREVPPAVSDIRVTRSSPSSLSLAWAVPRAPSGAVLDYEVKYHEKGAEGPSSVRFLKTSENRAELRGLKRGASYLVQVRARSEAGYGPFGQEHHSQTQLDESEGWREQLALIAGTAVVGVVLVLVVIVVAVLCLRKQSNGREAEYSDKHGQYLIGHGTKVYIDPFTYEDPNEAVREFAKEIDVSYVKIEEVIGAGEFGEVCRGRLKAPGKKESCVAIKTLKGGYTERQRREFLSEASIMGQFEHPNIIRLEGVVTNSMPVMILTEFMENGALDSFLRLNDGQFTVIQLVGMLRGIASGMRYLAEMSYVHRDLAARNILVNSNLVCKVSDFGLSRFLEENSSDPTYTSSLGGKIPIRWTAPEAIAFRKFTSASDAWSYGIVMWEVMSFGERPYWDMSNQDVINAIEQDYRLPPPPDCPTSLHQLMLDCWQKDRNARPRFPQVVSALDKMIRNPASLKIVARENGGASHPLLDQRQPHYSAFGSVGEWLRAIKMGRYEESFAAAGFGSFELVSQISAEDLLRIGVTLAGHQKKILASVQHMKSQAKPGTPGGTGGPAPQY
# [9] = target: Protein kinase C alpha type (Homo sapiens) (UniProt P17252); assay: Inhibition of human PKCalpha (1 to 672 residues) assessed as remaining enzyme activity at 50 uM after 30 mins by 33P-ATP filter-binding assay
# [10] = target: Protein-tyrosine kinase 6 (Homo sapiens) (UniProt Q13882); assay: Inhibition of human BRK (1 to 451 residues) assessed as remaining enzyme activity at 50 uM after 30 mins by 33P-ATP filter-binding assay
# [11] = target: Angiopoietin-1 receptor (Homo sapiens) (UniProt Q02763); assay: Inhibition of human TIE2 (771 to 1124 residues) assessed as remaining enzyme activity at 50 uM after 30 mins by 33P-ATP filter-binding assay
# [12] = target: Insulin receptor-related protein (Homo sapiens) (UniProt P14616); assay: Inhibition of human IRR (944 to 1236 residues) assessed as remaining enzyme activity at 50 uM after 30 mins by 33P-ATP filter-binding assay
# [13] = target: Mitogen-activated protein kinase kinase kinase 11 (Homo sapiens) (UniProt Q16584); assay: Inhibition of human MLK3 (96 to 386 residues) assessed as remaining enzyme activity at 50 uM after 30 mins by 33P-ATP filter-binding assay
# Chain of Mitogen-activated protein kinase kinase kinase 11 (Homo sapiens) (Q16584 whole entry, looked up, the tested form may be a part): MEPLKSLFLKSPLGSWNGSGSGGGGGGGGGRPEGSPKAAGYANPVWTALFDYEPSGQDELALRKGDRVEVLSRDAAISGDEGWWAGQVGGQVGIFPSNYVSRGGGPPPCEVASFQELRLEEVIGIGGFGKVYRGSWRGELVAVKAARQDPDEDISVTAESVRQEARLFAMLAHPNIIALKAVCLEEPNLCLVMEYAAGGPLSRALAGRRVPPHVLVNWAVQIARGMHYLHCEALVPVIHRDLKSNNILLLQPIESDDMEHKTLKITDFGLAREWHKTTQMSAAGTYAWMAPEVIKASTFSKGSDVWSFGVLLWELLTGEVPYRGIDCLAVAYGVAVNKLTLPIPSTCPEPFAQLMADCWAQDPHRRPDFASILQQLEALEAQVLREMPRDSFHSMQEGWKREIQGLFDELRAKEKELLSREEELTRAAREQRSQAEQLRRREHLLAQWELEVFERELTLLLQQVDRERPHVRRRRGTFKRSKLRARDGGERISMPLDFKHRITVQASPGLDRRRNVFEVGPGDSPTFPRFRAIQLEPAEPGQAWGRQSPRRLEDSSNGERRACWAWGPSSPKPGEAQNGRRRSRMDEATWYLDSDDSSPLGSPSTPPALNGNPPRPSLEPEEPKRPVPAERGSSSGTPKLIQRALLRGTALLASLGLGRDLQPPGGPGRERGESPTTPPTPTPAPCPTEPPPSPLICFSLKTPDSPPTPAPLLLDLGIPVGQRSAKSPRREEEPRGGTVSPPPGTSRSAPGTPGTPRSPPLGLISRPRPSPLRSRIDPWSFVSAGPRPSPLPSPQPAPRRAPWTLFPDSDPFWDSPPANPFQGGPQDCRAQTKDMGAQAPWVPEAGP
# [14] = target: Serine/threonine-protein kinase OSR1 (Homo sapiens) (UniProt O95747); assay: Inhibition of human OSR1 assessed as remaining enzyme activity at 50 uM after 30 mins by 33P-ATP filter-binding assay
# [15] = Partition coefficient, logP of the compound in water/PBS buffer at 25 degC by OECD guidelines based method; type: physicochemical; conditions: water/PBS buffer; read-out: logP
# [16] = Stability in pH 1.2 buffer at 120 ug/ml after 8 hrs by RP-HPLC analysis; type: physicochemical; conditions: pH 1.2, 8 h
# HL-60 = assay: Induction of apoptosis in human HL60 cells assessed as apoptotic cells at 10 uM (reference value: 1 %); type: functional
# [17] = Thermodynamic equilibrium solubility in stimulated gastric fluid at 120 ug/ml at pH 1.2 by HPLC analysis; type: ADME; conditions: simulated gastric fluid, read-out: Therm_solubility
# [18] = target: Ribosomal protein S6 kinase alpha-1 (Homo sapiens) (UniProt Q15418); assay: Inhibition of human RSK1 (1 to 735 residues) assessed as remaining enzyme activity at 50 uM after 30 mins by 33P-ATP filter-binding assay
# Chain of Ribosomal protein S6 kinase alpha-1 (Homo sapiens) (Q15418 whole entry, the tested form may be a part): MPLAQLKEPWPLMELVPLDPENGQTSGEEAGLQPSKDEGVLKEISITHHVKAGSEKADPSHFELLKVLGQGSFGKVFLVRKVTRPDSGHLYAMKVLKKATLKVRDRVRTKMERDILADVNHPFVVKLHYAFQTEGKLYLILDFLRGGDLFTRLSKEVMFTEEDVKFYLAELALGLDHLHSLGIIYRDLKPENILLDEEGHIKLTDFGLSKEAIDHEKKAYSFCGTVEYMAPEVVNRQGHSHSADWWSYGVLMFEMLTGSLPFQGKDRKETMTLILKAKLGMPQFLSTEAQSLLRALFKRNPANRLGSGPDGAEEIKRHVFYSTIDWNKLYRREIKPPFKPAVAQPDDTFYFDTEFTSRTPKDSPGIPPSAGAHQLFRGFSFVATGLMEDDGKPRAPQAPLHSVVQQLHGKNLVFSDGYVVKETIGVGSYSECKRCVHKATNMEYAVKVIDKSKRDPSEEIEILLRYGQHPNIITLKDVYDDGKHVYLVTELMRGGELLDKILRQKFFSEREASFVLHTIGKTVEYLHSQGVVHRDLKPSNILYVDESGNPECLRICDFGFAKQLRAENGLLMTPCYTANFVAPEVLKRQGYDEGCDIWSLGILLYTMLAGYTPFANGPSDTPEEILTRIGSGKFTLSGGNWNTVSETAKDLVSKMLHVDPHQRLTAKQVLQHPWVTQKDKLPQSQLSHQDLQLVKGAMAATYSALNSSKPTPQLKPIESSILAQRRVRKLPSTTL
# [19] = target: Mitogen-activated protein kinase 8 (Homo sapiens) (UniProt P45983); assay: Inhibition of human JNK1 (1 to 384 residues) assessed as remaining enzyme activity at 50 uM after 30 mins by 33P-ATP filter-binding assay
# [20] = target: NUAK family SNF1-like kinase 1 (Homo sapiens) (UniProt O60285); assay: Inhibition of human NUAK1 (2 to 660 residues) assessed as remaining enzyme activity at 50 uM after 30 mins by 33P-ATP filter-binding assay
# [21] = target: Serine/threonine-protein kinase TBK1 (Homo sapiens) (UniProt Q9UHD2); assay: Inhibition of human TBK1 (1 to 729 residues) assessed as remaining enzyme activity at 50 uM after 30 mins by 33P-ATP filter-binding assay
# [22] = target: Serine/threonine-protein kinase PAK 4 (Homo sapiens) (UniProt O96013); assay: Inhibition of human PAK4 (2 to 591 residues) assessed as remaining enzyme activity at 50 uM after 30 mins by 33P-ATP filter-binding assay
# Chain of Serine/threonine-protein kinase PAK 4 (Homo sapiens) (O96013 whole entry, looked up, the tested form may be a part): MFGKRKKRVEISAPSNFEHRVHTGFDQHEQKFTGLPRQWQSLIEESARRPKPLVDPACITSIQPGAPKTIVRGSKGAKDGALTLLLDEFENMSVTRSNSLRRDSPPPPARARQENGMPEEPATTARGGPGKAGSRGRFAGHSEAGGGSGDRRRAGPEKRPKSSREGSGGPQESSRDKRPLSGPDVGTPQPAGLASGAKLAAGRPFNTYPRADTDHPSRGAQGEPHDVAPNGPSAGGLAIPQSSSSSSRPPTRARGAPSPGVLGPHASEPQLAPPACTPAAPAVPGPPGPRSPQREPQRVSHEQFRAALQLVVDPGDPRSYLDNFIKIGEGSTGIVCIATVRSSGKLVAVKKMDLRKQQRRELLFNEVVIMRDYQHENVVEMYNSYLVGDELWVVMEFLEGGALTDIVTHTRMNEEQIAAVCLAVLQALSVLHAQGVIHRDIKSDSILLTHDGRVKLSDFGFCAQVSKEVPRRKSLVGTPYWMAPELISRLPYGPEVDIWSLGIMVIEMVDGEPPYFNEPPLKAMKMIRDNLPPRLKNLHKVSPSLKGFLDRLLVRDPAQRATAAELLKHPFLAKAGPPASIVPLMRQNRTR
# [23] = Cell cycle arrest in human HL60 cells assessed as accumulation at S phase at 1 uM (reference value: 36 %); type: functional, cell-based; conditions: HL-60
# [24] = target: Inhibitor of nuclear factor kappa-B kinase subunit epsilon (Homo sapiens) (UniProt Q14164); assay: Inhibition of human IKKe (1 to 716 residues) assessed as remaining enzyme activity at 50 uM after 30 mins by 33P-ATP filter-binding assay
# [25] = target: Serine/threonine-protein kinase SIK2 (Homo sapiens) (UniProt Q9H0K1); assay: Inhibition of human SIK2 (2 to 962 residues) assessed as remaining enzyme activity at 50 uM after 30 mins by 33P-ATP filter-binding assay
compound,measurement,setting,value
Cc1cc(=O)c2c(O)cc(O)c([C@H]3CCN(C)C[C@H]3O)c2o1 [ROHITUKINE],GI50 at 48 h,[1],> 50 µM
same,Activity,[2],76%
same,Activity,[3],96%
same,Activity,[4],27%
same,Activity,[5],59%
same,Activity,[6],11%
same,Activity,[7],55%
same,Activity,[8],84%
same,Activity,[9],78%
same,Activity,[10],93%
same,Activity,[11],80%
same,Activity,[12],53%
same,Activity,[13],58%
same,Activity,[14],93%
same,logP,[15],0.73
same,Stability,[16],Stable
same,Activity,HL-60,10%
same,solubility thermodynamic,[17],33.4 mg/mL
same,Activity,[18],31%
same,Activity,[19],96%
same,Activity,[20],52%
same,Activity,[21],55%
same,Activity,[22],83%
same,Activity,[23],50%
same,Activity,[24],69%
same,Activity,[25],19%
